Data taken from patent US11358936B2, “Lysyl oxidase-like 2 inhibitors and uses thereof” (PharmAkea, Inc., priority 2015, dated 2022).
Structures can show the parent of a compound that is named as a salt.

Molecular target: human LOXL2 (Homo sapiens (Human), UniProt Q9Y4K0)
Test: Human LOXL2 Amine Oxidase Activity Assay (Amplex Red fluorescence)
Format: biochemical
Conditions: concentrated conditioned media from CHO cells stably expressing human LOXL2; 2 h at 37° C. preincubation; DAP substrate; read-out: IC50

Sequence of human LOXL2 (Q9Y4K0 26-774): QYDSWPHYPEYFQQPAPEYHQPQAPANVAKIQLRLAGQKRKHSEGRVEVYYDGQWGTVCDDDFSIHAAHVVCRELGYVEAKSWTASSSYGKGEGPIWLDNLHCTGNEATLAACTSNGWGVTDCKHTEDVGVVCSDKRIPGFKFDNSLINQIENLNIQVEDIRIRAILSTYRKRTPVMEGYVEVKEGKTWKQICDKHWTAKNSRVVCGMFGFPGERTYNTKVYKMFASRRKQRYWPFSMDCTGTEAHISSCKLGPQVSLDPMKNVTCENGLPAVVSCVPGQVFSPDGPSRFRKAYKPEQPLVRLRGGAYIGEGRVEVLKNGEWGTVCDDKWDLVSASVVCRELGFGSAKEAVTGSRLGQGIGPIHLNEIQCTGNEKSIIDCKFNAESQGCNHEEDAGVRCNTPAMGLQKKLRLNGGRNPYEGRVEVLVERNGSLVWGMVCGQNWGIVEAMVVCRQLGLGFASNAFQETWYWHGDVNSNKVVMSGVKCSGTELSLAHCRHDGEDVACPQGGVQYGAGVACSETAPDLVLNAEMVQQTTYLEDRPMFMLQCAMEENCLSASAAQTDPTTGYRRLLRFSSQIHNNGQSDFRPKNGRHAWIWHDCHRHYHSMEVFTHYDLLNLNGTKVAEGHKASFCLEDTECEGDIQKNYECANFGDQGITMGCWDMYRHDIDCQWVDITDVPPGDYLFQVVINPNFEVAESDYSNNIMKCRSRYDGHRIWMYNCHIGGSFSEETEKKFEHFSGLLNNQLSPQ

IC50 [nM]	Compound
300 to 1000	NCc1ccnc(NC(=O)Cc2ccc(Cl)c(Cl)c2)c1 [Compound 2-43, N-(4-(Aminomethyl)pyridin-2-yl)-2-(3,4-dichlorophenyl)acetamide trifluoroacetate]
300 to 1000	NCc1ccncc1F [Compound 4-2, 3-Fluoro-4-(aminomethyl)pyridine]
< 300	COC(=O)c1ccc(CNC(=O)c2cccc(Oc3cc(CN)ccn3)c2)cc1 [Compound 1-33, Methyl 4-((3-((4-(aminomethyl)pyridin-2-yl)oxy)benzamido)methyl)benzoate hydrochloride]
< 300	NCc1ccnc(Oc2cccc3c2ccn3CC(=O)N2CCCCC2)c1 [Compound 2-27, 2-(4-((4-(Aminomethyl)pyridin-2-yl)oxy)-1H-indol-1-yl)-1-(piperidin-1-yl)ethanone hydrochloride]
< 300	NCc1ccnc(Oc2cccc(C(=O)Nc3ccc(F)cc3F)c2)c1 [Compound 1-24, 3-((4-Aminomethyl)pyridin-2-yl)oxy)-N-(2,4-difluorophenyl)benzamide hydrochloride]
300 to 1000	COCCNc1cc(CN)cc(Oc2cccc(Oc3ccccc3)c2)n1 [Compound 3-2, 4-(Aminomethyl)-N-(2-methoxyethyl)-6-(3-phenoxyphenoxy)pyridin-2-amine trifluoroacetate]
< 300	NCc1ccnc(Oc2cccc3c2ccn3-c2ccc(F)cc2)c1 [Compound 2-18, (2-((1-(4-Fluorophenyl)-1H-indol-4-yl)oxy)pyridin-4-yl)methanamine hydrochloride]
< 300	NCc1ccnc(C(=O)N2CCC(O)(C(F)(F)F)C2)c1 (racemic) [Compound 2-40, Racemic-(4-(aminomethyl)pyridin-2-yl)(3-hydroxy-3-(trifluoromethyl)pyrrolidin-1-yl)methanone hydrochloride]
< 300	NCc1ccnc(Oc2cccc(C(=O)NCc3cc4ccccc4s3)c2)c1 [Compound 1-42, 3-((4-(Aminomethyl)pyridin-2-yl)oxy)-N-(benzo[b]thiophen-2-ylmethyl)benzamide hydrochloride]
< 300	NCc1ccnc(Oc2cccc(C(=O)Nc3ccc(F)cc3)c2)c1 [Compound 1-23, 3-((4-Aminomethyl)pyridin-2-yl)oxy)-N-(4-fluorophenyl)benzamide hydrochloride]
< 300	NCc1ccnc(Oc2cccc(C(=O)NCc3ccc(C(=O)O)cc3)c2)c1 [Compound 1-34, 4-((3-((4-Aminomethyl)pyridin-2-yl)oxy)benzamido)methyl)benzoic acid hydrochloride]
< 300	NCc1ccnc(Oc2cccc(C(=O)Nc3cccc(C(F)(F)F)c3)c2)c1 [Compound 1-21, 3-((4-Aminomethyl)pyridin-2-yl)oxy)-N-(3-(trifluoromethyl)phenyl)benzamide hydrochloride]
< 300	NCc1ccnc(-c2ccc(C(=O)NCc3ccccc3)cc2)c1 [Compound 1-4, 4-(4-(Aminomethyl)pyridin-2-yl)-N-benzylbenzamide hydrochloride]
< 300	NCc1ccnc(Oc2cccc(Oc3ccccc3)c2)c1 [Compound 2-8, (2-(3-Phenoxyphenoxy)pyridin-4-yl)methanamine]
< 300	Cn1cc(-n2ccc3c(Oc4cc(CN)ccn4)cccc32)cn1 [Compound 2-19, (2-((1-(1-Methyl-1H-pyrazol-4-yl)-1H-indol-4-yl)oxy)pyridin-4-yl)methanamine hydrochloride]
< 300	NCc1ccnc(Oc2cccc3[nH]ccc23)c1 [Compound 2-32, (2-((1H-Indol-4-yl)oxy)pyridin-4-yl)methanamine trifluoroacetate]
< 300	NCc1ccnc(Oc2cccc3c2ccn3CC(=O)N2CCCc3ccccc32)c1 [Compound 2-31, 2-(4-((4-(Aminomethyl)pyridin-2-yl)oxy)-1H-indol-1-yl)-1-(3,4-dihydroquinolin-1(2H)-yl)ethanone hydrochloride]
< 300	NCc1ccnc(Oc2cccc(C(=O)NCCc3ccccc3)c2)c1 [Compound 1-40, 3-((4-(Aminomethyl)pyridin-2-yl)oxy)-N-phenethylbenzamide hydrochloride]
< 300	NCc1ccnc(Oc2cccc(C(=O)NCc3ccc(C(F)(F)F)cc3)c2)c1 [Compound 1-31, 3-((4-(Aminomethyl)pyridin-2-yl)oxy)-N-(4-(trifluoromethyl)benzyl)benzamide hydrochloride]
< 300	COc1ccc(-n2ccc3c(Oc4cc(CN)ccn4)cccc32)cn1 [Compound 2-20, (2-((1-(6-Methoxypyridin-3-yl)-1H-indol-4-yl)oxy)pyridin-4-yl)methanamine hydrochloride]

Compound	IC50 [nM]
COCCNC(=O)c1cc(CN)ccn1 [Compound 4-13, 4-(Aminomethyl)-N-(2-methoxyethyl)picolinamide hydrochloride]	< 300
NCc1ccnc(OCc2ccccc2)c1 [Compound 4-6, 2-Benzyloxy-4-(aminomethyl)pyridine]	> 1000
